From article PMC6327980 (Journal of Enzyme Inhibition and Medicinal Chemistry, 2018) come the findings set out here.

For one assay, the target named is T1, BpsCAβ (Burkholderia pseudomallei, UniProt Q63Y17).
T1 construct: gene BPSL0372
The class given is biochemical. The note with it: read-out: BpsCAβ.

A further assay concerns the target T2, VchCAβ (Vibrio cholerae, UniProt Q9KUD6).
T2 construct: gene VC_0586
The assay is described as follows: biochemical.

The target of another assay is T3, BpsCAγ.
T3 construct: gene BpsCAgamma
It counts as biochemical, Burkholderia pseudomallei.

The target in a further assay is T4, VchCAα (Vibrio cholerae, UniProt Q9KMP6).
T4 construct: gene VC_A0274
T4 sequence (Q9KMP6 21-239 limits assumed): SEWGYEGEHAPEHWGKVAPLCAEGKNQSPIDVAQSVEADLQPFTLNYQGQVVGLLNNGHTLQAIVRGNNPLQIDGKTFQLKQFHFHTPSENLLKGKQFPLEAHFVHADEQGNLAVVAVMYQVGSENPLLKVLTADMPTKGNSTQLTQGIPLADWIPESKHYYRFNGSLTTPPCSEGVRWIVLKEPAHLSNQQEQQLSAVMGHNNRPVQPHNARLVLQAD
The assay is described as follows: biochemical.

SMILES strings stand for the structures. Like-named read-outs stand apart in the source and are kept apart here.

T2 sequence (Q9KUD6 1-222): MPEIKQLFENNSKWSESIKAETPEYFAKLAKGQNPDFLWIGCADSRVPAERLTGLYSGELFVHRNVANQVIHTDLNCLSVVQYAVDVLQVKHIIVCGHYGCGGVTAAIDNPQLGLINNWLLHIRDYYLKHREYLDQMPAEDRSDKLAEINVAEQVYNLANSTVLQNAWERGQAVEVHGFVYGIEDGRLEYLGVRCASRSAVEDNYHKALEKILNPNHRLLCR
T1 sequence (Q63Y17 1-256): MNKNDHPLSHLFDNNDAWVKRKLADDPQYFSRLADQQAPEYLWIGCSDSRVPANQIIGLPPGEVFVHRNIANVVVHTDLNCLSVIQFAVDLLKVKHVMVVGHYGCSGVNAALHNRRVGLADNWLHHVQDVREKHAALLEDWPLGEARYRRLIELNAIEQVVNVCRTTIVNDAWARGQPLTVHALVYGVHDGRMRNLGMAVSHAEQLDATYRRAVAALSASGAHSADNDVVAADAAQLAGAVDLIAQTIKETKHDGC

Turning to `NS(=O)(=O)c1ccc(-c2ncc(C[Te]c3ccccc3)[se]2)cc1` [9a], the Ki came out at 0.92 µM on BpsCAβ, 7.7 µM on VchCAβ, 8.9 µM on BpsCAγ (read-out: VchCAγ) and 0.94 µM on VchCAα.
Regarding `COc1ccc([Se]Cc2cnc(-c3ccc(S(N)(=O)=O)cc3)[se]2)cc1` [10c], the Ki at VchCAβ was found to be 6.79 µM; on VchCAα, 0.92 µM.
Consider `Cc1ccc([Se]Cc2cnc(-c3ccc(S(N)(=O)=O)cc3)[se]2)cc1` [10b], for which the values for the Ki on VchCAβ and on VchCAα were 8.59 µM and 0.46 µM, respectively.
In the case of `N=C(N)SCc1cnc(-c2ccc(S(N)(=O)=O)cc2)[se]1` [compound 11, 11], the Ki at VchCAβ was found to be 9.12 µM; at BpsCAγ (read-out: BpsCAγ) it was 6.55 µM; at VchCAα, 0.44 µM.
`NS(=O)(=O)c1ccc(-c2ncc(C[Se]c3ccccc3)[se]2)cc1` [10a]: the values for the Ki on VchCAβ and on VchCAα were 8.84 µM and 0.87 µM, respectively.
With `COc1ccc([Te]Cc2cnc(-c3ccc(S(N)(=O)=O)cc3)[se]2)cc1` [9c], the figures for the Ki at VchCAβ and at VchCAα were 9.08 µM and 0.77 µM, respectively.
For the compound `Cc1ccc([Te]Cc2cnc(-c3ccc(S(N)(=O)=O)cc3)[se]2)cc1` [9b], the Ki amounted to 0.32 µM at BpsCAβ, 7.72 µM on VchCAβ, 7.6 µM on BpsCAγ (read-out: VchCAγ) and 0.47 µM on VchCAα.
